Measurements reported in PubChem BioAssay (NCI).
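Tested at 5 concentrations; 48 h exposure; 96-well plates; endpoints linearly interpolated, else capped at highest concentration. TGI: concentration producing complete growth inhibition.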

How the values were obtained:
Assay in all cases: inhibition of tumour cell growth, NCI panel, 48 h
[1] = tested on: M14 melanoma
[2] = tested on: OVCAR-4 ovarian
[3] = tested on: MDA-MB-435
[4] = tested on: HCT-15 colon
[5] = tested on: COLO 205 colon
[6] = tested on: NCI-H226 lung
[7] = tested on: MDA-N
[8] = tested on: HCT-116 colon
[9] = tested on: SF-539 CNS
[10] = tested on: DU-145 prostate
[11] = tested on: K-562 leukemia
[12] = tested on: SN12C renal
[13] = tested on: OVCAR-8 ovarian
[14] = tested on: MALME-3M melanoma
[15] = tested on: T-47D breast
[16] = tested on: HCC-2998 colon
[17] = tested on: PC-3 prostate
[18] = tested on: NCI/ADR-RES ovarian
[19] = tested on: RXF 393 renal
[20] = tested on: HOP-62 NSCLC
[21] = tested on: IGROV1 ovarian
[22] = tested on: U251 CNS
[23] = tested on: NCI-H522 lung
[24] = tested on: SNB-75 CNS
[25] = tested on: MOLT-4 leukemia
[26] = tested on: KM12 colon
[27] = tested on: SR leukemia
[28] = tested on: ACHN renal
[29] = tested on: CCRF-CEM leukemia
[30] = tested on: NCI-H23 lung
[31] = tested on: HT29 colon
[32] = tested on: 786-0 renal
[33] = tested on: HS 578T breast
[34] = tested on: UACC-62 melanoma
[35] = tested on: SF-268 CNS
[36] = tested on: SW-620 colon
[37] = tested on: SK-MEL-5 melanoma
[38] = tested on: OVCAR-5 ovarian
[39] = tested on: LOX IMVI melanoma
[40] = tested on: MCF7 breast
[41] = tested on: HOP-92 NSCLC
[42] = tested on: RPMI-8226 leukemia
[43] = tested on: SK-MEL-28 melanoma
[44] = tested on: SF-295 CNS
[45] = tested on: OVCAR-3 ovarian
[46] = tested on: TK-10 renal
[47] = tested on: A549 NSCLC
[48] = tested on: NCI-H460 lung
[49] = tested on: SK-OV-3 ovarian
[50] = tested on: CAKI-1 renal
[51] = tested on: SNB-19 CNS
[52] = tested on: MDA-MB-231 breast
[53] = tested on: BT-549 breast

Measured: TGI

CC(=O)OCC1OC(n2ncc(=O)[nH]c2=O)C(OC(C)=O)C1OC(C)=O (configuration not stated)
> 100 µM: [1] | [2] | [3] | [4] | [5] | [6] | [7] | [8] | [9] | [10] | [11] | [12] | [13] | [14] | [15] | [16] | [17] | [18] | [19] | [20] | [21] | [22] | [23] | [24] | [25] | [26] | [27] | [28] | [29] | [30] | [31] | [32] | [33] | [34] | [35] | [36] | [37] | [38] | [39] | [40] | [41] | [42] | [43] | [44] | [45] | [46] | [47] | [48] | [49] | [50]

CC(=Nc1ccc(Cl)c(Cl)c1)c1ccncc1
> 100 µM: [1] | [2] | [51] | [5] | [52] | [6] | [7] | [8] | [11] | [12] | [13] | [17] | [18] | [19] | [20] | [22] | [23] | [24] | [25] | [26] | [29] | [30] | [31] | [32] | [33] | [34] | [35] | [36] | [39] | [41] | [43] | [44] | [45] | [46] | [48] | [49] | [53]
